Reference: the NIST ThermoML archive (doi:10.1016/j.jct.2010.12.021)
“And” between values parts separate entries of the source, which are not always exact repeats. Identical values can stand only once.

Experiment: molar heat capacity at constant pressure
Conditions: 101.33 kPa, Crystal, Small sample (50 mg) DSC

CCCCCC[n+]1cccc2ccccc21.O=S(=O)([N-]S(=O)(=O)C(F)(F)F)C(F)(F)F [1-hexylquinolinium bis(trifluoromethylsulfonyl)amide]
Conditions | molar heat capacity at constant pressure
203.04 K | 300.57 J/K/mol [middle of 4 runs]
203.05 K | 300.39 J/K/mol and 306.52 J/K/mol
203.06 K | 305.88 J/K/mol
203.08 K | 302.69 J/K/mol
203.13 K | 298.95 J/K/mol
203.21 K | 298.13 J/K/mol
203.35 K | 295.39 J/K/mol
203.56 K | 285.68 J/K/mol
203.85 K | 280.12 J/K/mol
204.22 K | 282.02 J/K/mol
204.66 K | 288.24 J/K/mol
205.16 K | 293.91 J/K/mol
205.7 K | 295.33 J/K/mol
206.26 K | 301.86 J/K/mol
206.82 K | 315.29 J/K/mol
207.36 K | 320.59 J/K/mol
207.9 K | 319.02 J/K/mol
208.43 K | 317.61 J/K/mol
208.95 K | 317.22 J/K/mol
209.48 K | 316.74 J/K/mol
210.02 K | 313.5 J/K/mol
210.58 K | 310.53 J/K/mol
211.15 K | 311.06 J/K/mol
211.74 K | 311.71 J/K/mol
212.32 K | 311.41 J/K/mol
212.92 K | 311.93 J/K/mol
213.51 K | 313.38 J/K/mol
214.11 K | 314.64 J/K/mol
214.7 K | 315.47 J/K/mol
215.3 K | 316.35 J/K/mol
215.9 K | 317.1 J/K/mol
216.5 K | 317.71 J/K/mol
217.1 K | 318.5 J/K/mol
217.7 K | 319.34 J/K/mol
218.3 K | 320.14 J/K/mol
218.9 K | 320.94 J/K/mol
219.5 K | 321.78 J/K/mol
220.1 K | 322.65 J/K/mol
220.7 K | 323.47 J/K/mol
221.3 K | 324.32 J/K/mol
221.9 K | 325.15 J/K/mol
222.5 K | 325.93 J/K/mol
223.1 K | 326.77 J/K/mol
223.7 K | 327.6 J/K/mol
224.3 K | 328.43 J/K/mol
224.9 K | 329.26 J/K/mol
225.5 K | 330.08 J/K/mol
226.1 K | 330.9 J/K/mol
226.7 K | 331.78 J/K/mol
227.3 K | 332.65 J/K/mol
227.9 K | 333.52 J/K/mol
228.5 K | 334.39 J/K/mol
229.1 K | 335.29 J/K/mol
229.7 K | 336.19 J/K/mol
230.3 K | 337.06 J/K/mol
230.9 K | 337.92 J/K/mol
231.5 K | 338.75 J/K/mol
232.1 K | 339.57 J/K/mol
232.7 K | 340.41 J/K/mol
233.3 K | 341.25 J/K/mol
233.9 K | 342.13 J/K/mol
234.5 K | 343.04 J/K/mol
235.11 K | 343.9 J/K/mol
235.71 K | 344.83 J/K/mol
236.31 K | 345.73 J/K/mol
236.91 K | 346.55 J/K/mol
237.51 K | 347.39 J/K/mol
238.11 K | 348.22 J/K/mol
238.71 K | 348.99 J/K/mol
239.31 K | 349.79 J/K/mol
239.91 K | 350.56 J/K/mol
240.51 K | 351.35 J/K/mol
241.11 K | 352.21 J/K/mol
241.71 K | 353.05 J/K/mol
242.31 K | 353.86 J/K/mol
242.91 K | 354.74 J/K/mol
243.51 K | 355.63 J/K/mol
244.11 K | 356.56 J/K/mol
244.71 K | 357.47 J/K/mol
245.31 K | 358.35 J/K/mol
245.91 K | 359.26 J/K/mol
246.51 K | 360.13 J/K/mol
247.11 K | 360.95 J/K/mol
247.71 K | 361.75 J/K/mol
248.31 K | 362.5 J/K/mol
248.91 K | 363.25 J/K/mol
249.51 K | 363.98 J/K/mol
250.11 K | 364.75 J/K/mol
250.71 K | 365.53 J/K/mol
251.31 K | 366.32 J/K/mol
251.91 K | 367.13 J/K/mol
252.51 K | 367.96 J/K/mol
253.11 K | 368.8 J/K/mol
253.71 K | 369.64 J/K/mol
254.31 K | 370.52 J/K/mol
254.91 K | 371.43 J/K/mol
255.51 K | 372.34 J/K/mol
256.11 K | 373.31 J/K/mol
256.71 K | 374.34 J/K/mol
257.31 K | 375.35 J/K/mol
257.91 K | 376.38 J/K/mol
258.51 K | 377.4 J/K/mol
259.11 K | 378.39 J/K/mol
259.71 K | 379.39 J/K/mol
260.31 K | 380.35 J/K/mol
260.91 K | 381.29 J/K/mol
261.51 K | 382.27 J/K/mol
262.11 K | 383.27 J/K/mol
262.71 K | 384.28 J/K/mol
263.31 K | 385.29 J/K/mol
263.91 K | 386.31 J/K/mol
264.51 K | 387.3 J/K/mol
265.11 K | 388.31 J/K/mol
265.71 K | 389.33 J/K/mol
266.32 K | 390.32 J/K/mol
266.92 K | 391.31 J/K/mol
267.52 K | 392.31 J/K/mol
268.12 K | 393.27 J/K/mol
268.72 K | 394.25 J/K/mol
269.32 K | 395.21 J/K/mol
269.92 K | 396.11 J/K/mol
270.52 K | 397.07 J/K/mol
271.12 K | 398.06 J/K/mol
271.72 K | 399.04 J/K/mol
272.32 K | 400.09 J/K/mol
272.92 K | 401.2 J/K/mol
273.52 K | 402.31 J/K/mol
274.12 K | 403.5 J/K/mol
274.72 K | 404.68 J/K/mol
275.32 K | 405.86 J/K/mol
275.92 K | 407.08 J/K/mol
276.52 K | 408.31 J/K/mol
277.12 K | 409.49 J/K/mol
277.72 K | 410.7 J/K/mol
278.32 K | 411.89 J/K/mol
278.92 K | 413.04 J/K/mol
279.52 K | 414.18 J/K/mol
280.12 K | 415.29 J/K/mol
280.72 K | 416.38 J/K/mol
281.32 K | 417.47 J/K/mol
281.92 K | 418.55 J/K/mol
282.52 K | 419.65 J/K/mol
